The results in this text go back to PMC4726048 (2016).

Test [1] concerns F21T (DNA, G4) GGGTTAGGGTTAGGGTTAGGG
The test is described as follows: FRET melting. The conditions noted are these: 0.2 μM DNA; 3 μM compound.

Test [2] concerns F10T (DNA, hairpin, HEG linker between nt 8 and 9) TATAGCTATATAGCTATAT
The test is described as follows: FRET melting. The conditions noted are these: 0.2 μM DNA; 3 μM compound.

In test [3] the test system is CCR5-DEL (DNA, single strand) CTCATTTTCCATACATTAAAGATAGTCAT
The test can be described thus: luminescence enhancement. The conditions noted are these: 20 mM Tris-HCl pH 7.4; 1 μM compound, 5 μM DNA.

Test [4] deals with ON2m (DNA, single strand) AAGTTTCCGACTCCCCCAGGTGCCTTTGAA
The test is described as follows: luminescence enhancement. The conditions noted are these: ON2m used in place of ON2 in adenosine assay; 80 μM adenosine.

In test [5] the test system is 5'-side loop, 5'-G3TnG3T3G3T3G3-3', n = 1 (DNA, G4) GGGTGGGTTTGGGTTTGGG
The test can be described thus: luminescence enhancement. Conditions: 1 μM compound; 2.7-fold enhancement.

For test [6], the system named is 5'-side loop, 5'-G3TnG3T3G3T3G3-3', n = 15 (DNA, G4) GGGTTTTTTTTTTTTTTTGGGTTTGGGTTTGGG
The test can be described thus: luminescence enhancement. The conditions noted are these: 1 μM compound; 6.9-fold enhancement.

In test [7] the test system is central loop, 5'-G3T3G3TnG3T3G3-3', n = 1 (DNA, G4) GGGTTTGGGTGGGTTTGGG
The test is described as follows: luminescence enhancement. Conditions: 1 μM compound; 2.4-fold enhancement.

For test [8], the system named is central loop, 5'-G3T3G3TnG3T3G3-3', n = 15 (DNA, G4) GGGTTTGGGTTTTTTTTTTTTTTTGGGTTTGGG
The test can be described thus: luminescence enhancement. Conditions: 1 μM compound; 8.3-fold enhancement.

The subject of test [9] is 3'-side loop, 5'-G3T3G3T3G3TnG3-3', n = 1 (DNA, G4) GGGTTTGGGTTTGGGTGGG
The test can be described thus: luminescence enhancement. The conditions noted are these: 1 μM compound; 2.3-fold enhancement.

For test [10], the system named is 3'-side loop, 5'-G3T3G3T3G3TnG3-3', n = 15 (DNA, G4) GGGTTTGGGTTTGGGTTTTTTTTTTTTTTTGGG
The test is described as follows: luminescence enhancement. The conditions noted are these: 1 μM compound; 7.2-fold enhancement.

Test [11] deals with ON2 (DNA, G4) GGGTTTGGGACTCCCCCAGGTGGGTTTGGG
The test can be described thus: G4-FID (thiazole orange displacement). Conditions: Tris-HCl buffer; thiazole orange displaced; 0.25 μM DNA.

Test [12] has as its system ds17 (DNA, duplex) CCAGTTCGTAGTAACCC/GGGTTACTACGAACTGG
The test can be described thus: G4-FID (thiazole orange displacement). Conditions: Tris-HCl buffer; thiazole orange displaced; 0.25 μM DNA; under 50% displaced at highest concentration tested.

For test [13], the system named is ON1 (adenosine aptamer) (DNA, aptamer) ACCTGGGGGAGTATTGCGGAGGAAGGT
The test can be described thus: luminescence displacement assay (complex 1/ON1/ON2). The conditions noted are these: 100 mM NaCl, 10 mM MgCl2, 75 mM K+, 20 mM Tris-HCl pH 7.4, 37 °C.

[14] abbreviates: ON2 capture strand, 200 μM highest tested.

In the case of `Cc1cccnc1-c1[c-]cccc1.Cc1cccnc1-c1[c-]cccc1.[Ir+3].c1ccc(-c2ccc3ccc4ccc(-c5ccccc5)nc4c3n2)cc1`, the ΔTm in [1] is ~ 7.0 °C; in test [2], 3.0 °C. Also, the binding result in test [3] is reported as “weak”; in test [4] it was “weak”; in [5], “yes”; in [6], “yes”; in test [7], “yes”; in [8], “yes”. Moreover, the binding entry in [9] is “yes”; in test [10], “yes”; in test [12], “weak”. This molecule gave a G4DC50 in [11] of 7.0 µM.

Turning to `Nc1ccn([C@@H]2O[C@H](CO)[C@@H](O)[C@H]2O)c(=O)n1`, the binding entry in test [13] (setting [14]) is on record as “no”.

As for `Nc1nc2c(ncn2[C@@H]2O[C@H](CO)[C@@H](O)[C@H]2O)c(=O)[nH]1`, the binding entry in test [13] (setting [14]) is on record as “no”.

Regarding `Nc1ncnc2c1ncn2[C@@H]1O[C@H](CO)[C@@H](O)[C@H]1O`, the binding result in test [13] (ON2 capture strand displaced) was “yes”.

Turning to `O=c1ccn([C@@H]2O[C@H](CO)[C@@H](O)[C@H]2O)c(=O)[nH]1`, in test [13] (setting [14]), the binding result is “no”.
